Laboratory results from US20210137948A1, “TREATMENT OF INFECTIONS CAUSED BY NEISSERIA GONOCOCCUS USING A HALOGENATED SALICYLANILIDE” (priority 2018, published 2021).
In brackets after ≈: the same amount, converted by molar mass. Where two headings read alike, the source gives them in different places.

What was measured:
[1] = via the urinary tract or by enzymatic metabolism in the liver; cited from earlier work
Acinetobacter baumannii = test: Broth microdilution MIC testing; type: cell-based; conditions: Acinetobacter baumannii MMX 1630/ATCC 19606, susceptible
Description: (§1) Broth microdilution assay: Mueller Hinton II broth (MHB II, BBL, BD, catalog no. 212322; lot no. 5257869) was used for testing most aerobes.
(§2) MIC values were determined using a broth microdilution procedure described by CLSI, see reference (1). Automated liquid handlers (Multidrop 384, Labsystems, Helsinki, Finland; Biomek 2000 and Biomek FX, Beckman Coulter, Fullerton Calif.) were used to conduct serial dilutions and liquid transfers.
(§3) The wells in Columns 2 through 12 of two standard 96-well microdilution plates (Costar 3795, Corning Inc., Corning, N.Y.) were filled with 150 μL of diluent specific to the compound tested. Three hundred microliters of each comparator and investigational drug solution (40× or 100×) was added to one well in Column 1 of the plates. The Biomek 2000 was used to complete the serial transfers through Column 11. The wells of Column 12 contained no drug and were the organism growth control wells. These panels were the “mother plates.”
(§4) Because drugs were prepared at either 40× or 100×, the “daughter plates” were loaded with 185-188 μL of the appropriate test media for the tested organism, using the Multidrop 384 or by hand. The daughter plates were prepared on the Biomek FX instrument, which transferred 2-5 μL of drug solution from each well of a mother plate to the corresponding well of each daughter plate in a single step. The wells of the daughter plates ultimately contained 185-188 μL of broth appropriate to the organism, 2-5 μL of drug solution, and 10 μL of bacterial inoculum prepared in broth.
(§5) Standardized inoculum of each organism was prepared per CLSI methods, see reference (1). The inoculum for each organism was dispensed into sterile reservoirs divided by length (Beckman Coulter), and the Biomek 2000 was used to inoculate the plates. Daughter plates were placed on the Biomek 2000 work surface in reverse orientation so that inoculation took place from low to high drug concentration. The Biomek 2000 delivered 10 μL of standardized inoculum into each well. This yielded a final cell density in the daughter plates of approximately 5×10^5 CFU/mL.
(§6) Plates were stacked 3 high, covered with a lid on the top plate, placed in plastic bags, and incubated at 35° C. for approximately 18 to 20 hr. Following incubation, the microplates were removed from the incubator and viewed from the bottom using a plate viewer. […] The MIC was read and recorded as the lowest concentration of drug that inhibited visible growth of the organism.

Pseudomonas aeruginosa = test: Broth microdilution MIC testing; type: cell-based; conditions: Pseudomonas aeruginosa MMX 103/ATCC 27853, susceptible, QC
Description: as §1, §2, §3, §4, §5, §6

Escherichia coli = test: Broth microdilution MIC testing; type: cell-based; conditions: for MIC: Escherichia coli, read-out: Minimal Inhibitory Concentration
Description: as §1, §2, §3, §4, §5, §6

Enterobacter cloacae = test: Broth microdilution MIC testing; type: cell-based; conditions: Enterobacter cloacae MMX 6089, susceptible
Description: as §1, §2, §3, §4, §5, §6

Klebsiella pneumoniae = test: Broth microdilution MIC testing; type: cell-based; conditions: Klebsiella pneumoniae MMX 214/ATCC 13883, susceptible
Description: as §1, §2, §3, §4, §5, §6

[2] = tested on: Stenotrophomonas maltophila; test: Broth microdilution MIC testing; type: cell-based; conditions: Stenotrophomonas maltophila MMX 4746, susceptible
Description: as §1, §2, §3, §4, §5, §6

[3] = tested on: N. gonorrhoeae ATCC49226/MMX 683; test: Agar dilution MIC assay (Example 1); type: cell-based, Neisseria gonorrhoeae
Description: Neisseria gonococcus (N. gonorrhoeae) were assayed using a reference agar dilution method, see reference (2). Drug dilutions and drug-supplemented agar plates were prepared manually. Neisseria gonococcus was grown on Chocolate agar in a CO2 incubator overnight at 35° C. prior to assay. […] The MIC was read per CLSI guidelines, see reference (3).

O=C(Nc1ccc([N+](=O)[O-])cc1Cl)c1cc(Cl)ccc1O [Niclosamide, 2′,5-dichloro-4′-nitrosalicylanilide]
clearance from the bloodstream [1]: quickly cleared | MIC (Acinetobacter baumannii; ATCC19606, read-out: Minimal Inhibitory Concentration): > 8 µg/mL | Minimal Inhibitory Concentration (Acinetobacter baumannii): > 8 µg/mL | MIC (Pseudomonas aeruginosa; ATCC27853, read-out: Minimal Inhibitory Concentration): > 8 µg/mL | Minimal Inhibitory Concentration (Pseudomonas aeruginosa): > 8 µg/mL | Minimal Inhibitory Concentration (Escherichia coli; Escherichia coli MMX 102/ATCC 25922, QC strain): > 8 µg/mL | Minimal Inhibitory Concentration (Escherichia coli; Escherichia coli MMX 120, acrAB efflux pump knockout): > 8 µg/mL | MIC (Escherichia coli; ATCC25922): > 8 µg/mL | MIC (Escherichia coli): > 8 µg/mL | Minimal Inhibitory Concentration (Enterobacter cloacae): > 8 µg/mL | MIC (Enterobacter cloacae; read-out: Minimal Inhibitory Concentration): > 8 µg/mL | MIC (Klebsiella pneumoniae; ATCC13883, read-out: Minimal Inhibitory Concentration): > 8 µg/mL | Minimal Inhibitory Concentration (Klebsiella pneumoniae): > 8 µg/mL | Minimal Inhibitory Concentration [2]: > 8 µg/mL | MIC ([2]; Stenotrophomonas sp. LMG 10879, read-out: Minimal Inhibitory Concentration): > 8 µg/mL | MIC ([3]; ATCC49226, Neisseria gonorrhoeae MMX 683/ATCC 49226, QC, read-out: Minimal Inhibitory Concentration): 0.12 µg/mL (≈ 0.367 µM) | Minimal Inhibitory Concentration ([3]; Neisseria gonorrhoeae MMX 683/ATCC 49226, QC): 0.12 µg/mL | in vitro activity (in words) ([3]; against N. gonococcus (N. gonorrhoeae), Example 1 conclusion): good in vitro activity
